From ChEMBL document CHEMBL5131473, “One-pot synthesis of oxoaporphines as potent antitumor agents and investigation of their mechanisms of actions” (Eur J Med Chem, 2022) come the findings set out here.

Experiment [1] deals with T-24. The experiment in a line: Induction of mitochondrial membrane potential dysfunction in human T24 cells assessed as increase in fragmentation at 10 uM incubated for 24 hrs by TEM analysis. The format is functional, cell-based.
The subject of experiment [2] is T-24. The experiment in a line: Induction of cell cycle arrest in human T24 cells assessed as accumulation of cells at G1 phase at 10 uM incubated for 24 hrs by propidium iodide/RNase A staining based flow cytometry analysis (reference value: 51.71 %). The format is functional. Background: A flow cytometer gives signals particle by particle.
The test system of experiment [3] is T-24. The experiment in a line: Induction of cell cycle arrest in human T24 cells assessed as increase in CDK1 expression at 10 to 15 uM incubated for 24 hrs by chemiluminescence based Western blotting analysis. The format is functional. As to conditions: dose 10-15 µM, DDE = dose-dependent effect.
The subject of experiment [4] is T-24. The experiment in a line: Induction of mitochondrial membrane potential dysfunction in human T24 cells assessed as disappearance of cristae at 10 uM incubated for 24 hrs by TEM analysis. The format is functional, cell-based.
In experiment [5] the test system is T-24. The experiment in a line: Inhibition of colony formation in human T24 cells 0.2 to 10 uM incubated for 24 hrs and measured for 10 days. To be noted: dose 0.2-10 µM. Format: functional, cell-based.
Experiment [6] relates to T-24. The experiment in a line: Induction of cell cycle arrest in human T24 cells assessed as accumulation of cells at S phase at 15 uM incubated for 24 hrs by propidium iodide/RNase A staining based flow cytometry analysis (reference value: 42.47 %). The format is functional.
Experiment [7] has as its system T-24. The experiment in a line: Induction of mitochondrial membrane potential dysfunction in human T24 cells assessed as mitochondrial fragment condensation at 10 to 15 uM by mito-tracker green dye based fluorescence microscopy. To be noted: dose 10-15 µM. Format: functional, cell-based.
Experiment [8] deals with T-24. The experiment in a line: Induction of apoptosis in human T24 cells assessed as necrotic cells at 10 uM incubated for 24 hrs by Annexin-V/PI staining based flow cytometry analysis (reference value: 1.92 %). The format is functional.
For experiment [9], the system named is T-24. The experiment in a line: Induction of apoptosis in human T24 cells assessed as viable cells at 20 uM incubated for 24 hrs by Annexin-V/PI staining based flow cytometry analysis (reference value: 94.3 %). Format: functional. To be noted: read-out: Activity.
Experiment [10] has as its system T-24. The experiment in a line: Induction of mitochondrial ROS generation in human T24 cells at 10 uM measured after 24 hrs by DCFH-DA staining based confocal microscopy method. Format: functional, cell-based.
The test system of experiment [11] is T-24. The experiment in a line: Induction of DNA damage in human T24 cells assessed as increase in […] p53 expression at 10 to 15 uM incubated for 24 hrs by Western blot analysis. The format is functional, cell-based. To be noted: dose 10-15 µM. (A western blot detects proteins with antibodies after separation by electrophoresis.)
The test system of experiment [12] is T-24. The experiment in a line: Inhibition of cell migration in human T24 cells assessed as recovery of wound area at 5 uM measured after 24 hrs by wound healing assay based fluorescence microscopy. Format: functional. More on the design: scale not given: the % may be the effect or the level left.
The subject of experiment [13] is T-24. The experiment in a line: Induction of apoptosis in human T24 cells assessed as early apoptotic cells at 20 uM incubated for 24 hrs by Annexin-V/PI staining based flow cytometry analysis (reference value: 3.27 %). Format: functional.
Experiment [14] relates to T-24. The experiment in a line: Induction of mitochondrial ROS generation in human T24 cells at 0.5 uM measured after 24 hrs by DCFH-DA staining based confocal microscopy method. The format is functional, cell-based.
The subject of experiment [15] is T-24. The experiment in a line: Induction of cell cycle arrest in human T24 cells assessed as accumulation of cells at G2/M phase at 1 uM incubated for 24 hrs by propidium iodide/RNase A staining based flow cytometry analysis (reference value: 5.82 %). The format is functional.
The test system of experiment [16] is T-24. The experiment in a line: Induction of cell cycle arrest in human T24 cells assessed as accumulation of cells at G1 phase at 0.5 uM incubated for 24 hrs by propidium iodide/RNase A staining based flow cytometry analysis (reference value: 51.71 %). The format is functional.
Experiment [17] has as its system T-24. The experiment in a line: Induction of DNA damage in human T24 cells assessed as increase in gamma H2AX expression at 0.5 to 1 uM incubated for 24 hrs by Western blot analysis. To be noted: dose 0.5-1 µM. Format: functional, cell-based.
In experiment [18] the test system is T-24. The experiment in a line: Induction of cell cycle arrest in human T24 cells assessed as increase in Cyclin B expression at 0.5 to 1 uM incubated for 24 hrs by chemiluminescence based Western blotting analysis. Format: functional. As to conditions: dose 0.5-1 µM, DDE = dose-dependent effect.
The test system of experiment [19] is T-24. The experiment in a line: Induction of apoptosis in human T24 cells assessed as necrotic cells at 0.5 uM incubated for 24 hrs by Annexin-V/PI staining based flow cytometry analysis (reference value: 1.92 %). The format is functional.
The subject of experiment [20] is T-24. The experiment in a line: Induction of apoptosis in human T24 cells assessed as late apoptotic cells at 0.5 uM incubated for 24 hrs by Annexin-V/PI staining based flow cytometry analysis (reference value: 0.543 %). Format: functional.
Experiment [21] relates to T-24. The experiment in a line: Induction of apoptosis in human T24 cells assessed as viable cells at 0.5 uM incubated for 24 hrs by Annexin-V/PI staining based flow cytometry analysis (reference value: 94.3 %). The format is functional. To be noted: read-out: Activity.
Experiment [22] relates to T-24. The experiment in a line: Induction of mitochondrial membrane potential dysfunction in human T24 cells assessed as mitochondrial fragment condensation at 0.5 to 1 uM by mito-tracker green dye based fluorescence microscopy. The format is functional, cell-based. To be noted: dose 0.5-1 µM.
The test system of experiment [23] is T-24. The experiment in a line: Induction of cell cycle arrest in human T24 cells assessed as accumulation of cells at G2/M phase at 0.5 uM incubated for 24 hrs by propidium iodide/RNase A staining based flow cytometry analysis (reference value: 5.82 %). The format is functional.
In experiment [24] the test system is T-24. The experiment in a line: Potency index, ratio of oxoaporphine IC50 to test compound IC50 for anticancer activity against human T24 cells. Format: functional.
For experiment [25], the system named is T-24. The experiment in a line: Induction of DNA damage in human T24 cells assessed as increase in […] p53 expression at 2 to 4 uM incubated for 24 hrs by Western blot analysis. Format: functional, cell-based. As to conditions: dose 2-4 µM.
The subject of experiment [26] is T-24. The experiment in a line: Induction of apoptosis in human T24 cells assessed as viable cells at 4 uM incubated for 24 hrs by Annexin-V/PI staining based flow cytometry analysis (reference value: 94.3 %). Format: functional. To be noted: read-out: Activity.
The test system of experiment [27] is T-24. The experiment in a line: Induction of apoptosis in human T24 cells assessed as condensation of nuclei at 2 uM by Hoechst33258 staining based fluorescence microscopy. The format is functional, cell-based.
In experiment [28] the test system is T-24. The experiment in a line: Induction of mitochondrial ROS generation in human T24 cells at 2 uM measured after 24 hrs by Mitotracker Red dye based confocal microscopy method. Format: functional, cell-based.
Experiment [29] concerns T-24. The experiment in a line: Induction of apoptosis in human T24 cells assessed as increase in caspase 3 activity at 4 uM (Rvb= 3.1%). The format is functional.
For experiment [30], the system named is T-24. The experiment in a line: Induction of DNA damage in human T24 cells assessed as DNA strand breakage by measuring comet formation at 2 uM incubated for 24 hrs by comet assay. The format is functional, cell-based.
Experiment [31] concerns T-24. The experiment in a line: Induction of apoptosis in human T24 cells assessed as increase in caspase 3 activity at 2 uM (Rvb= 3.1%). The format is functional.
Experiment [32] deals with T-24. The experiment in a line: Induction of apoptosis in human T24 cells assessed as necrotic cells at 6 uM incubated for 24 hrs by Annexin-V/PI staining based flow cytometry analysis (reference value: 1.92 %). The format is functional.
In experiment [33] the test system is T-24. The experiment in a line: Induction of mitochondrial membrane potential dysfunction in human T24 cells assessed as disappearance of cristae at 2 uM incubated for 24 hrs by TEM analysis. The format is functional, cell-based.
The subject of experiment [34] is T-24. The experiment in a line: Induction of cell cycle arrest in human T24 cells assessed as accumulation of cells at G2/M phase at 2 uM incubated for 24 hrs by propidium iodide/RNase A staining based flow cytometry analysis (reference value: 5.82 %). The format is functional.
Experiment [35] deals with T-24. The experiment in a line: Induction of cell cycle arrest in human T24 cells assessed as accumulation of cells at G1 phase at 4 uM incubated for 24 hrs by propidium iodide/RNase A staining based flow cytometry analysis (reference value: 51.71 %). Format: functional.
Experiment [36] has as its system T-24. The experiment in a line: Induction of mitochondrial ROS generation in human T24 cells at 2 uM measured after 24 hrs by DCFH-DA staining based confocal microscopy method. The format is functional, cell-based.

The source made the active and inactive calls. The calls are words filed in the database; no cut-off is given here.

As for `O=C1c2ccccc2-c2cccc3ccnc1c23`, the result in experiment [1], in [4], in experiment [7], in [10] and in [11] was Active. Also, the Activity in [2] is 31.45%; in experiment [3] it was “Dde”; in experiment [6] it was 46.29%; in [8], 3.31%; in experiment [12] it was 21.7%; in [13], 36.6%. In addition, the inhibition result in [5] was “Active”. The viability at 20 µM in [9] stood at 56.2%.
For the compound `O=C1c2ccccc2-c2ccc([N+](=O)[O-])c3ccnc1c23`, the result in experiment [14], in experiment [17] and in experiment [22] was Active. Besides, the Activity was 61.26% in experiment [15]; 0.58% in [16]; “Dde” in experiment [18]; 1.54% in experiment [19]; 5.1% in experiment [20]; 52.05% in experiment [23]. In addition, in experiment [21], the viability at 0.5 µM is 58.1%. For the same compound, the “Ratio IC50” value in [24] was 19.
As to `O=C1c2cc([N+](=O)[O-])ccc2-c2ccc([N+](=O)[O-])c3ccnc1c23`, the outcome in [25], in experiment [27], in [28], in experiment [30], in experiment [33] and in [36] was Active. Further, the viability at 4 µM in experiment [26] came out at 59.4%. Also, the Activity in experiment [29] was 28%; in experiment [31] it was 24.6%; in experiment [32], 3.14%; in experiment [34], 33.02%; in [35] it was 15.29%.
